Our source for the IC50 values is patent US9079880B2, “Rho kinase inhibitors” (Boehringer Ingelheim International GmbH, priority 2010, dated 2015).

Experiment [1] has as its target T1, ROCKII (1-543) (Homo sapiens (Human), UniProt O75116). The experiment can be described thus: Luciferin-Luciferase Assay (PKLight ATP detection). The settings on record: 750 nM ATP, 500 nM peptide, 7.5 nM kinase. It counts as biochemical. On the procedure:
1. Luciferin-Luciferase Assay
The activity of ROCKII (1-543) kinase was measured utilizing Cambrex PKLight ATP Detection Reagent, a homogeneous assay technology using luciferin-luciferase to quantify residual ATP. The assay was performed in 384-well low-volume, white, non-binding surface microtiter plates (Corning). The assay buffer was 25 mM HEPES, pH 7.5, 10 mM MgCl2, 50 mM KCl, 0.2% BSA, 0.01% CHAPS, 100 μM Na3VO4 and 0.5 mM DTT. Test compounds, dissolved in neat DMSO at 500 μg/mL, were serially diluted for dose response for a final starting concentration of 3 μg/mL in 1% DMSO of assay buffer. ROCKII (1-543) (62,408Da) was diluted in assay buffer to a final concentration of 7.5 nM in a total volume of 15 μL. Positive controls were reaction mixtures containing no test compound; negative controls (blanks) were reaction mixtures containing no kinase. After 15 minutes of pre-incubation of the test compounds with the kinase, a mixture of ATP and peptide substrate ([…]) in assay buffer was added to each well for a final concentration of 750 nM ATP and 500 nM peptide, respectively. After 90 minutes of incubation of the kinase reaction at 28° C. temperature, 10 μL of PKLight ATP Detection Reagent (warmed to room temperature previously) was added to each well. The assay plate was incubated at room temperature for additional 15 minutes and then read on an Analyst in luminescence mode. Dose-response experiments for each of the test compounds were conducted in quadruplet. IC50 values of test compounds represent 50% response of the positive control from the dose-response curve.
Target sequence in this assay (O75116 1-543): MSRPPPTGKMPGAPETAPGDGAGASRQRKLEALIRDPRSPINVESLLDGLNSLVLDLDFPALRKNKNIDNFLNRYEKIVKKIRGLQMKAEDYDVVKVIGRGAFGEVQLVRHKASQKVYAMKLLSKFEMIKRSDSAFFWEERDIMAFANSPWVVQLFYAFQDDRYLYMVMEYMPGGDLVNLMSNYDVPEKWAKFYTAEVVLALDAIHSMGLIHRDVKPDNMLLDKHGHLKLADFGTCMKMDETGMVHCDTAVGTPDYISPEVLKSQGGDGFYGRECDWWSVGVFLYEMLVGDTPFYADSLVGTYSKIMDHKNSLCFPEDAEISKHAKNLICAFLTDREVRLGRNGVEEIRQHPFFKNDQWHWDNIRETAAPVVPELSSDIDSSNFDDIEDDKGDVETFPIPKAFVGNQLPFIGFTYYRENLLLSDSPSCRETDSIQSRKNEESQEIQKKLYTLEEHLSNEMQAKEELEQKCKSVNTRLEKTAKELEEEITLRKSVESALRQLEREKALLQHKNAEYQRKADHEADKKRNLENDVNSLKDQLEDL

For experiment [2], the target named is T1, ROCKII (1-543). The experiment can be described thus: IMAP Assay (fluorescence polarization, FAM S6 peptide). It counts as biochemical. The settings on record: 100 μM ATP, 200 nM FAM S6 peptide, 1 nM kinase; read-out: Assay 2 IC50. On the procedure:
This assay is performed using FAM S6 substrate peptide (Catalogue #R7184) and IMAP FP Screening Express Kit detection reagents from Molecular Devices (Sunnyvale, Calif.) in IMAP kinase reaction buffer (Tris-HCl, pH 7.2, 10 mM MgCl2, 0.05% NaN3, 0.1% phosphate-free BSA) containing 1 mM DTT. Test compounds dissolved in neat DMSO at 0.3 mg/mL are serially diluted 1 to 3 for concentration response in 100% DMSO. The DMSO serial dilutions are further diluted 33.33-fold in kinase reaction buffer, and 10 μL of this buffer dilution is transferred to Corning black 96-well half area NBS plates for a final top concentration of 3 μg/mL in 1% DMSO. 10 μL aliquot of 3 nM ROCKII (1-543) diluted in kinase reaction buffer is added to each assay well for a final concentration of 1 nM kinase. 10 μL of a mixture of 600 nM FAM S6 peptide and 300 μM ATP diluted in kinase reaction buffer is added to each well for a final concentration of 200 nM peptide and 100 μM ATP. The kinase reaction mixture is incubated for 60 minutes at room temperature. Positive controls are reaction mixtures containing no test compound and negative controls (blanks) are reaction mixtures containing no kinase. The kinase reaction is stopped by addition of 60 μL IMAP progressive binding reagent (Catalog #R7284) diluted 400-fold in 1× Binding buffer A. After 30 min of incubation at room temperature, the plates are read for fluorescence polarization on Analyst Plate Reader using Ex 485 nm, Em 530 nm, and FL 505 dichroic mirror. The mP signals are converted to percent of control (POC) values using the formula: POC=100*(Signal−BCTRL)÷(PCTRL−BCTRL)
Where Signal is the test well signal, BCTRL is the average of background (negative control) well signals on the plate and PCTRL is the average of positive control well signals on the plate. For the concentration-responsive compounds, POC as a function of test compound concentration is fitted to a 4-parameter logistic equation of the form: Y=A+(B−A)/[1+(x/C)D] Where A, B, C, and D are fitted parameters (parameter B is fixed at zero POC), and x and y are the independent and dependent variables, respectively. The IC50 is determined as the inflection point parameter, C.
Target sequence in this assay (O75116 1-543, species assumed): as the sequence (O75116 1-543) above
On the technique in general: Polarisation of emitted light reports the rotation of a fluorescent probe.

As to `CN(C)[C@H]1CCc2nc(NC(=O)c3cccc([C@H]4CCCN4C(=O)c4ccc5[nH]c(=O)ccc5c4)c3)sc2C1` [Compound 108], the IC50 on ROCKII (1-543) [1] was found to be 2.3 nM; at ROCKII (1-543) [2], 3.6 nM. On to `Nc1nonc1-n1nnc(C(=O)N2CCC[C@@H]2c2cccc(C(=O)Nc3nc4c(s3)C[C@@H](N3CCOCC3)CC4)c2)c1-c1ccccc1` [Compound 134], for which the IC50 on ROCKII (1-543) [1] is 2.7 nM; on ROCKII (1-543) [2], 30 nM. Take `Cc1nc(-c2ccncc2)sc1C(=O)N1CCC[C@@H]1c1cccc(C(=O)Nc2nc3c(s2)C[C@@H](N2CCOCC2)CC3)c1` [Compound 128]: the results for the IC50 on ROCKII (1-543) [1] and on ROCKII (1-543) [2] were 3.6 nM and 29 nM, respectively.

As for `CN(C)[C@H]1CCc2nc(NC(=O)c3cccc(OCC(=O)Nc4ccc(C#N)cc4)c3)sc2C1` [Compound 9], the IC50 is 1.7 nM against ROCKII (1-543) [1] and 2.2 nM at ROCKII (1-543) [2]. For the compound `Cc1nc(-c2ccncc2)sc1C(=O)N1CCC[C@@H]1c1cccc(C(=O)Nc2nc3c(s2)C[C@@H](N(C)C)CC3)c1` [Compound 48], the IC50 stood at 2.8 nM against ROCKII (1-543) [1] and 10 nM on ROCKII (1-543) [2].

As for `CN1CCN(C2CCc3nc(NC(=O)c4cccc(OCC(=O)Nc5ccc(C#N)cc5)c4)sc3C2)CC1` (centres unmarked) [Compound 154], the values for the half-inhibitory concentration (IC50) on ROCKII (1-543) [1] and on ROCKII (1-543) [2] were 6.5 nM and 33 nM, respectively. `CN(C)[C@H]1CCc2nc(NC(=O)c3cccc([C@H]4CCCN4C(=O)c4nnn(-c5nonc5N)c4-c4ccccc4)c3)sc2C1` [Compound 50]: the IC50 against ROCKII (1-543) [1] came to 2.2 nM; at ROCKII (1-543) [2], 8.7 nM.

As for `COc1ccc(C(=O)N2CCC[C@@H]2c2cccc(C(=O)Nc3nc4c(s3)C[C@@H](N3CCOCC3)CC4)c2)cc1OC` [Compound 112], the IC50 at ROCKII (1-543) [1] came to 3.6 nM; on ROCKII (1-543) [2] it was 6.8 nM.

For `CN1CCc2nc(NC(=O)c3cccc([C@H]4CCCN4C(=O)Nc4cccc(C#N)c4)c3)sc2C1` [Compound 101, (R)-2-[3-(5-Methyl-4,5,6,7-tetrahydro-thiazolo[5,4-c]pyridin-2-ylcarbamoyl)-phenyl]-pyrrolidine-1-carboxylic acid (3-cyano-phenyl)-amide trifluoroacetic acid], the values for the IC50 at ROCKII (1-543) [1] and at ROCKII (1-543) [2] were 3.1 nM and 6.8 nM, respectively. For the compound `N#Cc1ccc(NC(=O)COc2cccc(C(=O)Nc3nc4c(s3)CC(N3CCN(C5CC5)CC3)CC4)c2)cc1` (centres unmarked) [Compound 152], the IC50 on ROCKII (1-543) [1] was 6.1 nM; on ROCKII (1-543) [2], 24 nM. As for `O=C(Nc1nc2c(s1)C[C@@H](N1CCOCC1)CC2)c1cccc([C@H]2CCCN2C(=O)c2ccc(-c3cnco3)cc2)c1` [Compound 118], the IC50 against ROCKII (1-543) [1] worked out at 2.5 nM; on ROCKII (1-543) [2], 6.9 nM. For the compound `CN(C)[C@H]1CCc2nc(NC(=O)c3cccc([C@H]4CCCN4C(=O)c4cc(-c5ccncc5)[nH]n4)c3)sc2C1` [Compound 96], on ROCKII (1-543) [2], the IC50 amounted to 0.8 nM. Turning to `CCCN[C@H]1CCc2nc(NC(=O)c3cccc([C@@H](C)NC(=O)c4ccc(OC)c(C)c4)c3)sc2C1` [Compound 35], the IC50 on ROCKII (1-543) [1] was 0.9 nM; at ROCKII (1-543) [2] it was 0.4 nM. `O=C(Nc1nc2c(s1)C[C@@H](N1CCOCC1)CC2)c1cccc([C@H]2CCCN2C(=O)c2csc(-c3cccnc3)n2)c1` [Compound 136]: the results for the IC50 at ROCKII (1-543) [1] and on ROCKII (1-543) [2] were 2.6 nM and 6.9 nM, respectively.

With `CN1CCc2nc(NC(=O)c3cccc([C@H]4CCCN4C(=O)c4ccc(-c5ccncc5)cc4)c3)sc2C1` [Compound 26], the IC50 at ROCKII (1-543) [1] was found to be 1.7 nM; on ROCKII (1-543) [2], 5.8 nM. `CN(C)[C@H]1CCc2nc(NC(=O)c3cccc([C@H]4CCCN4C(=O)c4ccc5cc(O)ccc5c4)c3)sc2C1` [Compound 100]: the IC50 on ROCKII (1-543) [2] worked out at 2 nM. Take `CN(C)[C@H]1CCc2nc(NC(=O)c3cccc([C@H]4CCCN4C(=O)c4cccc(-c5cn[nH]c5)c4)c3)sc2C1` [Compound 106]: at ROCKII (1-543) [2], the IC50 was 1.9 nM. On to `CN(C)[C@H]1CCc2nc(NC(=O)c3cccc([C@H]4CCCN4C(=O)c4ccc(-c5ccncc5)cc4)c3)sc2C1` [Compound 88], for which the IC50 on ROCKII (1-543) [2] turned out to be 3.8 nM. For `CCCC[C@@H](NC(=O)c1ccc(OC)c(OC)c1)c1cccc(C(=O)Nc2nc3c(s2)CN(C)CC3)c1` [Compound 98], the results for the IC50 on ROCKII (1-543) [1] and on ROCKII (1-543) [2] were 6.2 nM and 11 nM, respectively. For the compound `N#Cc1ccc(NC(=O)COc2cccc(C(=O)Nc3nc4c(s3)C[C@@H](N3CCOCC3)CC4)c2)cc1` [Compound 13], the IC50 came out at 3.4 nM against ROCKII (1-543) [1] and 8.5 nM at ROCKII (1-543) [2]. For `N#Cc1cccc(NC(=O)N2CCC[C@@H]2c2cccc(C(=O)Nc3ccc(CCN4CCCC4)cc3)c2)c1` [Compound 18], the results for the IC50 against ROCKII (1-543) [1] and on ROCKII (1-543) [2] were 6 nM and 19 nM, respectively. In the case of `O=C(Nc1nc2c(s1)C[C@@H](N1CCOCC1)CC2)c1cccc([C@H]2CCCN2C(=O)c2ccc(-c3ccncc3)cc2)c1` [Compound 132], the IC50 amounted to 2.6 nM on ROCKII (1-543) [1] and 17 nM at ROCKII (1-543) [2]. On the same counts, the results for `COc1ccc(C(=O)N[C@H](C)c2cccc(C(=O)Nc3nc4c(s3)CN(C)CC4)c2)cc1OC` [Compound 97] are 3.1 nM and 5.8 nM. With `O=C(Nc1nc2c(s1)C[C@@H](N1CCOCC1)CC2)c1cccc([C@H]2CCCN2C(=O)c2ccc3[nH]c(=O)ccc3c2)c1` [Compound 126], the values for the IC50 at ROCKII (1-543) [1] and on ROCKII (1-543) [2] were 2.7 nM and 7 nM, respectively. Turning to `N#Cc1cccc(NC(=O)N2CCC[C@@H]2c2cccc(C(=O)Nc3nc4c(s3)C[C@@H](N)CC4)c2)c1` [Compound 20, (R)-2-[3-((S)-6-Amino-4,5,6,7-tetrahydro-benzothiazol-2-ylcarbamoyl)-phenyl]-pyrrolidine-1-carboxylic acid (3-cyano-phenyl)-amide trifluoroacetic acid], the IC50 against ROCKII (1-543) [1] is 1.7 nM; on ROCKII (1-543) [2], 0.39 nM.

As for `CN1CCc2nc(NC(=O)c3cccc(OCC(=O)Nc4ccc5[nH]ncc5c4)c3)sc2C1` [Compound 23], the IC50 at ROCKII (1-543) [2] turned out to be 0.8 nM. Consider `O=C(Nc1nc2c(s1)C[C@@H](N1CCOCC1)CC2)c1cccc([C@H]2CCCN2C(=O)c2cc(-c3ccncc3)[nH]n2)c1` [Compound 138], for which the IC50 at ROCKII (1-543) [2] was 4.2 nM.

Take `CN(C)[C@H]1CCc2nc(NC(=O)c3cccc([C@H]4CCCN4C(=O)c4ccc(-c5cnco5)cc4)c3)sc2C1` [Compound 90]: the IC50 at ROCKII (1-543) [2] worked out at 2.1 nM. Take `CCCN[C@H]1CCc2nc(NC(=O)c3cccc([C@@H](C)NC(=O)c4ccc(OC)c(OC)c4)c3)sc2C1` [Compound 31, 3,4-dimethoxy-N-{(R)-1-[3-((S)-6-propylamino-4,5,6,7-tetrahydro-benzothiazol-2-ylcarbamoyl)-phenyl]-ethyl}-benzamide]: the IC50 at ROCKII (1-543) [1] was 1 nM; at ROCKII (1-543) [2] it was 0.3 nM. Turning to `CN(C)[C@H]1CCc2nc(NC(=O)c3cccc([C@H]4CCCN4C(=O)Nc4cccc(C#N)c4)c3)sc2C1` [Compound 37], the IC50 on ROCKII (1-543) [2] was determined as 0.3 nM. Same read-out and setting: with `CN(C)[C@H]1CCc2nc(NC(=O)c3cccc([C@H]4CCCN4C(=O)c4cn5cc(C(N)=O)ccc5n4)c3)sc2C1` [Compound 104] the figure was 1.7 nM; with `CN(C)[C@H]1CCc2nc(NC(=O)c3cccc([C@H]4CCCN4C(=O)c4csc(-c5cccnc5)n4)c3)sc2C1` [Compound 92], 1.3 nM; with `CN(C)[C@H]1CCc2nc(NC(=O)c3cccc([C@H]4CCCN4C(=O)c4csc(-c5ccncc5)n4)c3)sc2C1` [Compound 94], 2 nM. Still for that read-out and setting: with `N#Cc1ccn2cc(C(=O)N3CCC[C@@H]3c3cccc(C(=O)Nc4nc5c(s4)C[C@@H](N4CCOCC4)CC5)c3)nc2c1` [Compound 82] the figure was 1.7 nM.

The term IC50 denotes the point on the concentration scale where inhibition reaches its midpoint.
